Test results taken from paper PMC4433859 (Journal of immunology (Baltimore, Md. : 1950), 2015).
Where no end group is shown, it is not given here.

Key:
[1] = system: HIV-specific CD8^+ T-cell responses; test: IFNγ ELISpot with overlapping and optimal peptides; format: cell-based, human; conditions: IFNγ ELISpot responders among HLA-B*42:01^+ individuals, stratified for lack of HLA-B*07:02/39:10/42:02/81:01 co-expression (n=154)
[2] = target: HLA-B*42:01 (Homo sapiens, UniProt P01889, D138N/E176V/E187T/K202T/R180D); test: biochemical; format: binding

Row | Sequence | targeting frequency [1] [%] | Kd [2] [nM]
1 | KVVPRRKAKIIKDYGKQM [Int-275] | 53 | –
2 | IIKDYGKQM [Int-IM9] | – | 19
